# Legend:
# BRD3 BD2 WT [1] = molecular target: T1, BRD3 BD2 WT (Homo sapiens, UniProt Q15059); assay: competitive AlphaLISA; format: binding
# BRD4 BD2 WT [2] = molecular target: T2, BRD4 BD2 WT (Homo sapiens, UniProt O60885); assay: ITC; format: binding
# BRD4 BD2 WT [3] = molecular target: T2, BRD4 BD2 WT; assay: competitive AlphaLISA; format: binding
# BRD4 BD1 L/V [4] = molecular target: T3, BRD4 BD1 L/V (Homo sapiens, UniProt O60885, L94V); assay: ITC; format: binding; details: for Kd: Kd BRD4 BD1 L/V
# BRD2 BD2 WT [5] = molecular target: T4, BRD2 BD2 WT (Homo sapiens, UniProt P25440); assay: competitive AlphaLISA; format: binding
# BRD3 BD1 WT = BRD3 BD1 WT (Homo sapiens, UniProt Q15059); assay: ITC; format: binding
# BRD3 BD2 L/V [6] = molecular target: T5, BRD3 BD2 L/V (Homo sapiens, UniProt Q15059, L345V); assay: competitive AlphaLISA; format: binding
# BRD4 BD1 WT [7] = molecular target: T6, BRD4 BD1 WT (Homo sapiens, UniProt O60885); assay: ITC; format: binding
# BRD4 BD2 L/V = BRD4 BD2 L/V (Homo sapiens, UniProt O60885, L387V); assay: ITC; format: binding
# BRD4 BD1 WT [8] = molecular target: T6, BRD4 BD1 WT; assay: competitive AlphaLISA; format: binding
# BRD2 BD2 L/V = BRD2 BD2 L/V (Homo sapiens, UniProt P25440, L383V); assay: ITC; format: binding
# in vitro = details: PAMPA, pH 7.4
# BRD3 BD2 WT [9] = molecular target: T1, BRD3 BD2 WT; assay: ITC; format: binding
# BRDT BD2 WT = BRDT BD2 WT (Homo sapiens, UniProt Q58F21); assay: competitive AlphaLISA; format: binding
# BRD2 BD1 WT = BRD2 BD1 WT (Homo sapiens, UniProt P25440); assay: ITC; format: binding
# BRD4 BD1 L/V [10] = molecular target: T3, BRD4 BD1 L/V; assay: competitive AlphaLISA; format: binding
# BRD2 BD1 L/V = BRD2 BD1 L/V (Homo sapiens, UniProt P25440, L110V); assay: ITC; format: binding
# [11] = tested on: L/V somatic BET bromodomains; assay: ITC
# BRD3 BD1 L/V = BRD3 BD1 L/V (Homo sapiens, UniProt Q15059, L70V); assay: ITC; format: binding
# BRD3 BD2 L/V [12] = molecular target: T5, BRD3 BD2 L/V; assay: ITC; format: binding
# BRD2 BD2 WT [13] = molecular target: T4, BRD2 BD2 WT; assay: ITC; format: binding
# Chain of BRD2 BD2 L/V (P25440 344-455 L383V): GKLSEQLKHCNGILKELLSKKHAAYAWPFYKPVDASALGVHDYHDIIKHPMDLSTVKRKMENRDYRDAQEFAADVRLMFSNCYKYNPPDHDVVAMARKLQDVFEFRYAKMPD
# Chain of BRD3 BD1 L/V (Q15059 24-144 L70V limits assumed): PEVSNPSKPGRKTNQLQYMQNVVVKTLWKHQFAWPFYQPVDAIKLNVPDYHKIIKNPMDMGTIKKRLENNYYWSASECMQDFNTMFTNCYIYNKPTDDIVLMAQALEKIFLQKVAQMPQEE
# T5 sequence (Q15059 306-416 L345V limits assumed): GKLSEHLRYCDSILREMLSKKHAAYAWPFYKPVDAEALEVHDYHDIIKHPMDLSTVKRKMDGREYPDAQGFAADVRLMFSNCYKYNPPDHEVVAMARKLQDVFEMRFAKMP
# Chain of BRD2 BD1 L/V (P25440 71-176 L110V limits assumed): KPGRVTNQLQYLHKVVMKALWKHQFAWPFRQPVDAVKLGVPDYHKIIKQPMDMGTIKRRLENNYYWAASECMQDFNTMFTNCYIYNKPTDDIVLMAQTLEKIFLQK
# T4 sequence (P25440 344-455): as the sequence (P25440 344-455 L383V) above, with V40L counted along it
# T1 sequence (Q15059 306-416): as the sequence (Q15059 306-416 L345V limits assumed) above, with V40L counted along it
# Chain of BRD3 BD1 WT (Q15059 24-144): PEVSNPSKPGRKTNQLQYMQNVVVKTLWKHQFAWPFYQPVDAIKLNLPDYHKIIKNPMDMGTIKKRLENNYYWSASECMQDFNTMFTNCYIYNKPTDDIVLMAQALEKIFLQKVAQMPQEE
# Chain of BRD2 BD1 WT (P25440 71-176): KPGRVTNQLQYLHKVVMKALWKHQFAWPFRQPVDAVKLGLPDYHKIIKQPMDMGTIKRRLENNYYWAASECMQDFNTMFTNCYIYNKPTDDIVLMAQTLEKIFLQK
structure (smiles),measurement,setting,value
CC[C@@H](C(=O)OC)[C@@H]1N=C(c2ccc(Cl)cc2)c2ccc(OC)cc2-n2c(C)nnc21 (racemic) [Compound 8],IC50,BRD3 BD2 WT [1],3.98 µM
same,Kd,BRD4 BD2 WT [2],> 60 µM
same,IC50,BRD4 BD2 WT [3],3.16 µM
same,N BRD4 BD1 L/V,"BRD4 BD1 L/V [4]; ITC stoichiometry, total compound concentration",1.42 ±0.02
same,ΔH BRD4 BD1 L/V,"BRD4 BD1 L/V [4]; ITC, total compound concentration",-3.5 ± 0.1 kcal/mol
same,selectivity plot WT 2.1 vs L/V 4.1,BRD4 BD1 L/V [4]; Kd BRD2 BD1 WT / Kd BRD4 BD1 L/V,> 110
same,selectivity plot WT 2.2 vs L/V 4.1,BRD4 BD1 L/V [4]; Kd BRD2 BD2 WT / Kd BRD4 BD1 L/V,> 100
same,selectivity plot WT 3.1 vs L/V 4.1,BRD4 BD1 L/V [4]; Kd BRD3 BD1 WT / Kd BRD4 BD1 L/V,60
same,selectivity plot WT 3.2 vs L/V 4.1,BRD4 BD1 L/V [4]; Kd BRD3 BD2 WT / Kd BRD4 BD1 L/V,> 110
same,Kd,"BRD4 BD1 L/V [4]; ITC of separated enantiomers and racemates, total compound concentration",0.84 ± 0.17 µM
same,Kd,"BRD4 BD1 L/V [4]; ITC, 30°C",0.53 µM
same,selectivity plot WT 4.1 vs L/V 4.1,BRD4 BD1 L/V [4]; Kd BRD4 BD1 WT / Kd BRD4 BD1 L/V,> 100
same,selectivity plot WT 4.2 vs L/V 4.1,BRD4 BD1 L/V [4]; Kd BRD4 BD2 WT / Kd BRD4 BD1 L/V,> 100
same,IC50,BRD2 BD2 WT [5],3.98 µM
same,Kd,BRD3 BD1 WT,29 µM
same,IC50,BRD3 BD2 L/V [6],0.0794 µM
same,Kd,BRD4 BD1 WT [7],> 60 µM
same,Kd,BRD4 BD2 L/V,0.74 µM
same,selectivity plot WT 2.1 vs L/V 4.2,BRD4 BD2 L/V; Kd BRD2 BD1 WT / Kd BRD4 BD2 L/V,> 80
same,selectivity plot WT 2.2 vs L/V 4.2,BRD4 BD2 L/V; Kd BRD2 BD2 WT / Kd BRD4 BD2 L/V,> 80
same,selectivity plot WT 3.1 vs L/V 4.2,BRD4 BD2 L/V; Kd BRD3 BD1 WT / Kd BRD4 BD2 L/V,40
same,selectivity plot WT 3.2 vs L/V 4.2,BRD4 BD2 L/V; Kd BRD3 BD2 WT / Kd BRD4 BD2 L/V,> 80
same,selectivity plot WT 4.1 vs L/V 4.2,BRD4 BD2 L/V; Kd BRD4 BD1 WT / Kd BRD4 BD2 L/V,> 80
same,selectivity plot WT 4.2 vs L/V 4.2,BRD4 BD2 L/V; Kd BRD4 BD2 WT / Kd BRD4 BD2 L/V,> 80
same,IC50,BRD4 BD1 WT [8]; AlphaLISA pIC50 Value BRD4 BD1 WT,1.58 µM
same,IC50,"BRD4 BD1 WT [8]; pIC50 BRD4 BD1 WT, separated enantiomers test, total compound concentration",50.1 µM
same,Kd,BRD2 BD2 L/V,0.3 µM
same,selectivity plot WT 2.1 vs L/V 2.2,BRD2 BD2 L/V; Kd BRD2 BD1 WT / Kd BRD2 BD2 L/V,> 200
same,selectivity plot WT 2.2 vs L/V 2.2,BRD2 BD2 L/V; Kd BRD2 BD2 WT / Kd BRD2 BD2 L/V,> 200
same,selectivity plot WT 3.1 vs L/V 2.2,BRD2 BD2 L/V; Kd BRD3 BD1 WT / Kd BRD2 BD2 L/V,100
same,selectivity plot WT 3.2 vs L/V 2.2,BRD2 BD2 L/V; Kd BRD3 BD2 WT / Kd BRD2 BD2 L/V,> 200
same,selectivity plot WT 4.1 vs L/V 2.2,BRD2 BD2 L/V; Kd BRD4 BD1 WT / Kd BRD2 BD2 L/V,> 200
same,selectivity plot WT 4.2 vs L/V 2.2,BRD2 BD2 L/V; Kd BRD4 BD2 WT / Kd BRD2 BD2 L/V,> 200
same,Papp,in vitro,15.5 ×10⁻⁶ cm/s
same,Kd,BRD3 BD2 WT [9],> 60 µM
same,IC50,BRDT BD2 WT,3.98 µM
same,Kd,BRD2 BD1 WT,> 60 µM
same,IC50,BRD4 BD1 L/V [10]; AlphaLISA pIC50 Value BRD4 BD1 L/V,0.126 µM
same,ΔpIC50 BRD4 BD1,"BRD4 BD1 L/V [10]; L/V minus WT, total compound concentration",1.4
same,IC50,"BRD4 BD1 L/V [10]; pIC50 BRD4 BD1 L/V, separated enantiomers test, total compound concentration",2 µM
same,Kd,BRD2 BD1 L/V,0.34 µM
same,selectivity plot WT 2.1 vs L/V 2.1,BRD2 BD1 L/V; Kd BRD2 BD1 WT / Kd BRD2 BD1 L/V,> 180
same,selectivity plot WT 2.2 vs L/V 2.1,BRD2 BD1 L/V; Kd BRD2 BD2 WT / Kd BRD2 BD1 L/V,> 180
same,selectivity plot WT 3.1 vs L/V 2.1,BRD2 BD1 L/V; Kd BRD3 BD1 WT / Kd BRD2 BD1 L/V,90
same,selectivity plot WT 3.2 vs L/V 2.1,BRD2 BD1 L/V; Kd BRD3 BD2 WT / Kd BRD2 BD1 L/V,> 180
same,selectivity plot WT 4.1 vs L/V 2.1,BRD2 BD1 L/V; Kd BRD4 BD1 WT / Kd BRD2 BD1 L/V,> 180
same,selectivity plot WT 4.2 vs L/V 2.1,BRD2 BD1 L/V; Kd BRD4 BD2 WT / Kd BRD2 BD1 L/V,> 180
same,ITC pKd ± SD Δ,[11]; L/V minus WT,>2.2 ± 0.2
same,selectivity for the L/V mutant over wild-type,"[11]; across the BET subfamily, ITC",> 100 fold
same,ITC pKd ± SD L/V,[11]; mean and SD of all somatic bromodomains,6.4 ± 0.2
same,Kd,BRD3 BD1 L/V,0.27 µM
same,selectivity plot WT 2.1 vs L/V 3.1,BRD3 BD1 L/V; Kd BRD2 BD1 WT / Kd BRD3 BD1 L/V,> 230
same,selectivity plot WT 2.2 vs L/V 3.1,BRD3 BD1 L/V; Kd BRD2 BD2 WT / Kd BRD3 BD1 L/V,> 230
same,selectivity plot WT 3.1 vs L/V 3.1,BRD3 BD1 L/V; Kd BRD3 BD1 WT / Kd BRD3 BD1 L/V,110
same,selectivity plot WT 3.2 vs L/V 3.1,BRD3 BD1 L/V; Kd BRD3 BD2 WT / Kd BRD3 BD1 L/V,> 230
same,selectivity plot WT 4.1 vs L/V 3.1,BRD3 BD1 L/V; Kd BRD4 BD1 WT / Kd BRD3 BD1 L/V,> 230
same,selectivity plot WT 4.2 vs L/V 3.1,BRD3 BD1 L/V; Kd BRD4 BD2 WT / Kd BRD3 BD1 L/V,> 230
same,Kd,BRD3 BD2 L/V [12],0.41 µM
same,selectivity plot WT 2.1 vs L/V 3.2,BRD3 BD2 L/V [12]; Kd BRD2 BD1 WT / Kd BRD3 BD2 L/V,> 150
same,selectivity plot WT 2.2 vs L/V 3.2,BRD3 BD2 L/V [12]; Kd BRD2 BD2 WT / Kd BRD3 BD2 L/V,> 150
same,selectivity plot WT 3.1 vs L/V 3.2,BRD3 BD2 L/V [12]; Kd BRD3 BD1 WT / Kd BRD3 BD2 L/V,70
same,selectivity plot WT 3.2 vs L/V 3.2,BRD3 BD2 L/V [12]; Kd BRD3 BD2 WT / Kd BRD3 BD2 L/V,> 150
same,selectivity plot WT 4.1 vs L/V 3.2,BRD3 BD2 L/V [12]; Kd BRD4 BD1 WT / Kd BRD3 BD2 L/V,> 150
same,selectivity plot WT 4.2 vs L/V 3.2,BRD3 BD2 L/V [12]; Kd BRD4 BD2 WT / Kd BRD3 BD2 L/V,> 150
same,Kd,BRD2 BD2 WT [13],> 60 µM

# — PMC5909127, “Optimization of a “bump-and-hole” approach to allele-selective BET bromodomain inhibition” (Chemical Science, 2018)
